Data reported in ChEMBL document CHEMBL1123009, “Synthesis and antimicrobial evaluation of bicyclomycin analogues” (1985).
Values after ≈ are worked out from the molar mass of the structure shown. Active and inactive are the calls of the source. The calls are words filed in the database; no cut-off is given here.

Legend:
Staphylococcus aureus [1] = assay: Compound was evaluated for its antibiotic activity against gram-negative and gram-positive bacterial strains; NA = not active; type: functional, organism-based
Staphylococcus aureus [2] = assay: Minimum inhibitory concentration against gram-negative and gram-positive bacterial strains; Not active.; type: functional, organism-based
[3] = test system: Acinetobacter calcoaceticus; assay: Minimum inhibitory concentration against Acinetobacter calcoaceticus PCl3; type: functional
Priestia megaterium = assay: Minimum inhibitory concentration against Bacillus megaterium 164; type: functional
Bacillus subtilis = assay: Minimum inhibitory concentration against Bacillus subtilis 558; type: functional
Bacillus [4] = assay: Minimum inhibitory concentration against Bacillus sp. E; type: functional
Candida albicans = assay: Minimum inhibitory concentration against yeast Candida albicans 155; type: functional
Escherichia coli = assay: Minimum inhibitory concentration against Escherichia coli 94; type: functional
Klebsiella pneumoniae = assay: Minimum inhibitory concentration against Klebsiella pneumoniae 369; type: functional
Micrococcus luteus = assay: Minimum inhibitory concentration against Micrococcus luteus PCI; type: functional
Mycolicibacterium phlei = assay: Minimum inhibitory concentration against Mycobacterium phlei 78; type: functional
Penicillium digitatum = assay: Minimum inhibitory concentration against Penicillium digitatum 0184; type: functional
Paecilomyces variotii = assay: Minimum inhibitory concentration against Paecilomyces varioti M16; type: functional
Pseudomonas aeruginosa = assay: Minimum inhibitory concentration against Pseudomonas aeruginosa 56; type: functional
Proteus vulgaris = assay: Minimum inhibitory concentration against Proteus vulgaris 101N; type: functional
Serratia marcescens = assay: Minimum inhibitory concentration against Serratia marcescens SM; type: functional
Saccharomyces cerevisiae = assay: Minimum inhibitory concentration against Saccharomyces cerevisiae 90; type: functional
Serratia = assay: Minimum inhibitory concentration against Serratia sp.101; type: functional
Staphylococcus aureus [5] = assay: Minimum inhibitory concentration against Staphylococcus aureus 82; type: functional
Enterococcus faecium = assay: Minimum inhibitory concentration against Streptococcus faecium ATCC 8043; type: functional
Streptomyces sp. = assay: Minimum inhibitory concentration against Gram positive filament Streptomyces cellulose 097; type: functional
Bacillus [6] = assay: Minimum inhibitory concentration against Bacillus sp. TA; type: functional

`C=C1CCOC2NC(=O)[C@@]1(O)NC2=O` was tested, and the MIC (Staphylococcus aureus [1]) was “inactive”.

With `C=CC1COC2C(=O)N(Cc3ccccc3)[C@@H]1C(=O)N2Cc1ccccc1` (some centres not stated) the MIC (Staphylococcus aureus [2]) was “inactive”.

For `C=CC1COC2NC(=O)[C@H]1NC2=O` (some centres not stated), the MIC (Staphylococcus aureus [1]) was “inactive”.

`C[C@](O)(CO)[C@H](O)C12NC(=O)[C@H](CCCO1)NC2=O` was tested, and the MIC (Staphylococcus aureus [2]) was “inactive”.

In the case of `C=C1CCOC2NC(=O)[C@H]1NC2=O`, the MIC (Staphylococcus aureus [2]) is reported as “inactive”.

With `O=C1N[C@H]2CCCOC1NC2=O` the MIC (Staphylococcus aureus [2]) was “inactive”.

In the case of `C=C1CCOC2C(=O)N(Cc3ccccc3)[C@]1(O)C(=O)N2Cc1ccccc1`, the MIC [3] is reported as > 1000 µg/mL, the MIC (Priestia megaterium) is reported as 500 µg/mL (≈ 1320 µM) and the MIC (Bacillus subtilis) is reported as 250 µg/mL (≈ 661 µM). The MIC (Bacillus [4]) was > 1000 µg/mL, the MIC (Candida albicans) was > 1000 µg/mL and the MIC (Escherichia coli) was > 1000 µg/mL. The MIC (Klebsiella pneumoniae) was > 1000 µg/mL, the MIC (Micrococcus luteus) was 500 µg/mL (≈ 1320 µM) and the MIC (Mycolicibacterium phlei) was > 1000 µg/mL. The MIC (Penicillium digitatum) was > 1000 µg/mL, the MIC (Paecilomyces variotii) was > 1000 µg/mL and the MIC (Pseudomonas aeruginosa) was > 1000 µg/mL. The MIC (Proteus vulgaris) was > 1000 µg/mL, the MIC (Serratia marcescens) was > 1000 µg/mL and the MIC (Saccharomyces cerevisiae) was > 1000 µg/mL. The MIC (Serratia) was > 1000 µg/mL, the MIC (Staphylococcus aureus [5]) was > 1000 µg/mL and the MIC (Enterococcus faecium) was > 1000 µg/mL. The MIC (Streptomyces sp.) was 500 µg/mL (≈ 1320 µM) and the MIC (Bacillus [6]) was 250 µg/mL (≈ 661 µM).

With `C=C1COC2C(=O)N(Cc3ccccc3)[C@@H]1C(=O)N2Cc1ccccc1` the MIC (Staphylococcus aureus [2]) was “inactive”.

For `C=C1CCOC2C(=O)N(Cc3ccccc3)[C@@H]1C(=O)N2Cc1ccccc1`, the MIC (Staphylococcus aureus [2]) was “inactive”.

For `C=C1CCO[C@]2([C@@H](O)[C@@](C)(O)CO)NC(=O)[C@@]1(O)NC2=O` [BICOZAMYCIN], the MIC [3] was 1000 µg/mL (≈ 3310 µM), the MIC (Priestia megaterium) was > 1000 µg/mL and the MIC (Bacillus subtilis) was > 1000 µg/mL. The MIC (Bacillus [4]) was > 1000 µg/mL, the MIC (Candida albicans) was > 1000 µg/mL and the MIC (Escherichia coli) was 250 µg/mL (≈ 827 µM). The MIC (Klebsiella pneumoniae) was 250 µg/mL (≈ 827 µM), the MIC (Micrococcus luteus) was > 1000 µg/mL and the MIC (Mycolicibacterium phlei) was 1000 µg/mL (≈ 3310 µM). For the same molecule, the MIC (Penicillium digitatum) was > 1000 µg/mL, the MIC (Paecilomyces variotii) was > 1000 µg/mL and the MIC (Pseudomonas aeruginosa) was > 1000 µg/mL. For the same molecule, the MIC (Proteus vulgaris) was > 1000 µg/mL, the MIC (Serratia marcescens) was > 1000 µg/mL and the MIC (Saccharomyces cerevisiae) was > 1000 µg/mL. The MIC (Serratia) was > 1000 µg/mL, the MIC (Staphylococcus aureus [5]) was > 1000 µg/mL and the MIC (Enterococcus faecium) was > 1000 µg/mL. For the same molecule, the MIC (Streptomyces sp.) was 500 µg/mL (≈ 1650 µM) and the MIC (Bacillus [6]) was > 1000 µg/mL.

In the case of `O=C1C2OCCC[C@@](O)(C(=O)N2Cc2ccccc2)N1Cc1ccccc1`, the MIC (Staphylococcus aureus [2]) is reported as “inactive”.

In the case of `C=C1CCOC2([C@@H](O)[C@@](C)(O)CO)NC(=O)[C@@]1(O)NC2=O`, the MIC (Staphylococcus aureus [2]) is reported as “inactive”.

With `CN1C(=O)[C@@H]2CCOC1C(=O)N2C` the MIC (Staphylococcus aureus [1]) was “inactive”.

With `CSC12OCCC[C@@](C)(C(=O)N1C)N(C)C2=O` the MIC (Staphylococcus aureus [1]) was “inactive”.

`COc1ccc(CN2C(=O)[C@@H]3CCCOC2C(=O)N3Cc2ccc(OC)cc2)cc1` was tested, and the MIC (Staphylococcus aureus [2]) was “inactive”.

`CS[C@@]12CCCOC(C(=O)N1C)N(C)C2=O` was tested, and the MIC (Staphylococcus aureus [2]) was “inactive”.

In the case of `C[C@](O)(CO)[C@H](O)C12NC(=O)[C@](O)(CCCO1)NC2=O`, the MIC (Staphylococcus aureus [2]) is reported as “inactive”.

`CN1C(=O)[C@]2(C(=O)c3ccccc3)CCOC1C(=O)N2C` was tested, and the MIC (Staphylococcus aureus [1]) was “inactive”.

For `CN1C(=O)[C@]2(C(O)c3ccccc3)CCCOC1C(=O)N2C` (some centres not stated), the MIC (Staphylococcus aureus [2]) was “inactive”.

In the case of `COc1ccc(N2C(=O)[C@@H]3CCCOC2C(=O)N3c2ccc(OC)cc2)cc1`, the MIC (Staphylococcus aureus [2]) is reported as “inactive”.

`O=C1[C@@H]2CCCOC(C(=O)N2Cc2ccccc2)N1Cc1ccccc1` was tested, and the MIC (Staphylococcus aureus [2]) was “inactive”.

In the case of `O=C1N[C@@]2(O)CCCOC1NC2=O`, the MIC (Staphylococcus aureus [2]) is reported as “inactive”.

With `O=C1[C@@H]2[C@H](CO)COC(C(=O)N2Cc2ccccc2)N1Cc1ccccc1` the MIC (Staphylococcus aureus [2]) was “inactive”.

`CN1C(=O)[C@@H]2CCCOC1C(=O)N2C` was tested, and the MIC (Staphylococcus aureus [2]) was “inactive”.
